These compounds were tested against SARS2 coronavirus 3CL protease (Severe acute respiratory syndrome coronavirus 2 (2019-nCoV) (SARS-CoV-2), UniProt P0DTD1) (assay: SARS2 Coronavirus 3CL Protease Assay (FRET)). Settings: SARS2 3CLPro FRET assay; 5 nM enzyme, 30 min pre-incubation with compound, 15 uM peptide substrate, 4 h room temperature.
Format: biochemical

Structure (SMILES) | IC50
COC(=O)N[C@H](C(=O)N1CC(C2CCC2)C[C@H]1C(=O)N[C@@H](CCC(C)(F)F)C(=O)C(=O)NC1CC1)C(C)(C)C (single isomer, unassigned) [Example 1, Methyl ((S)-1-((2S,4(S or R))-4-cyclobutyl-2-(((S)-1-(cyclopropylamino)-6,6-difluoro-1,2-dioxoheptan-3-yl)carbamoyl)pyrrolidin-1-yl)-3,3-dimethyl-1-oxobutan-2-yl)carbamate] | 0.028 µM
COC(=O)N[C@H](C(=O)N1CC(C23CC(C2)C3)C[C@H]1C(=O)N[C@@H](CCC(C)(F)F)C(=O)C(=O)NC1CC1)C(C)(C)C (single isomer, unassigned) [Example 2, Methyl ((S)-1-((2S,4(R or S))-4-(bicyclo[1.1.1]pentan-1-yl)-2-(((S)-1-(cyclopropylamino)-6,6-difluoro-1,2-dioxoheptan-3-yl)carbamoyl)pyrrolidin-1-yl)-3,3-dimethyl-1-oxobutan-2-yl)carbamate] | 0.029 µM
COC(=O)N[C@H](C(=O)N1CC(C2CCCC2)C[C@H]1C(=O)N[C@@H](CCC(C)(F)F)C(=O)C(=O)NC1CC1)C(C)(C)C (single isomer, unassigned) [Example 3, Methyl ((S)-1-((2S,4(R or S))-4-cyclopentyl-2-(((S)-1-(cyclopropylamino)-6,6-difluoro-1,2-dioxoheptan-3-yl)carbamoyl)pyrrolidin-1-yl)-3,3-dimethyl-1-oxobutan-2-yl)carbamate] | 0.058 µM
COCC(NC(=O)OC)C(=O)N1CC2(CCCCC2)C[C@H]1C(=O)N[C@@H](CCC(C)(F)F)C(=O)C(=O)NC1CC1 (single isomer, unassigned) [Example 11, Methyl ((R or S)-1-((S)-3-(((S)-1-(cyclopropylamino)-6,6-difluoro-1,2-dioxoheptan-3-yl)carbamoyl)-2-azaspiro[4.5]decan-2-yl)-3-methoxy-1-oxopropan-2-yl)carbamate] | 0.04 µM
COC(=O)N[C@H](C(=O)N1CCC(C2CC2)C1C(=O)N[C@@H](CCC(C)(F)F)C(=O)C(=O)NC1CC1)C(C)(C)C (single isomer, unassigned) [Example 23, Methyl ((S)-1-((2(S or R),3(R or S))-3-cyclopropyl-2-(((S)-1-(cyclopropylamino)-6,6-difluoro-1,2-dioxoheptan-3-yl)carbamoyl)pyrrolidin-1-yl)-3,3-dimethyl-1-oxobutan-2-yl)carbamate] | 0.01 µM
COC(=O)N[C@H](C(=O)N1CC2(CCOCC2)CC1C(=O)N[C@@H](CCC(C)(F)F)C(=O)C(=O)NC1CC1)C(C)(C)C (single isomer, unassigned) [Example 28, Methyl ((S)-1-((R or S)-(3-(((S)-1-(cyclopropylamino)-6,6-difluoro-1,2-dioxoheptan-3-yl)carbamoyl)-8-oxa-2-azaspiro[4.5]decan-2-yl)-3,3-dimethyl-1-oxobutan-2-yl)carbamate] | 0.297 µM
COC(=O)N[C@H](C(=O)N1CC(C)CCC1C(=O)N[C@@H](CCC(C)(F)F)C(=O)C(=O)NC1CC1)C(C)(C)C (single isomer, unassigned) [Example 30, Methyl ((S)-1-(2(R or S), 5(R or S)-(((S)-1-(cyclopropylamino)-6,6-difluoro-1,2-dioxoheptan-3-yl)carbamoyl)-5-methylpiperidin-1-yl)-3,3-dimethyl-1-oxobutan-2-yl)carbamate] | 0.04 µM
COC(=O)N[C@H](C(=O)N1CC2(C[C@H]1C(=O)N[C@@H](CCC(C)(F)F)C(=O)C(=O)NC1CC1)CC2(F)F)C(C)(C)C (single isomer, unassigned) [Example 32, Methyl ((S)-1-((3(R or S),6S)-6-(((S)-1-(cyclopropylamino)-6,6-difluoro-1,2-dioxoheptan-3-yl)carbamoyl)-1,1-difluoro-5-azaspiro[2.4]heptan-5-yl)-3,3-dimethyl-1-oxobutan-2-yl)carbamate] | 0.015 µM
COC(=O)N[C@H](C(=O)N1CCC2(CCCC2)CC1C(=O)N[C@@H](CCC(C)(F)F)C(=O)C(=O)NC1CC1)C(C)(C)C (single isomer, unassigned) [Example 34, Methyl ((S)-1-(R or S)-(7-(((S)-1-(cyclopropylamino)-6,6-difluoro-1,2-dioxoheptan-3-yl)carbamoyl)-8-azaspiro[4.5]decan-8-yl)-3,3-dimethyl-1-oxobutan-2-yl)carbamateazaspiro[4.5]decan-8-yl)-3,3-dimethyl-1-oxobutan-2-yl)carbamate] | 0.0074 µM
COC(=O)N[C@H](C(=O)N1CCC(C)(C)CC1C(=O)N[C@@H](CCC(C)(F)F)C(=O)C(=O)NC1CC1)C(C)(C)C (single isomer, unassigned) [Example 37, Methyl ((S)-1-((R or S)-(2-(((S)-1-(cyclopropylamino)-6,6-difluoro-1,2-dioxoheptan-3-yl)carbamoyl)-4,4-dimethylpiperidin-1-yl)-3,3-dimethyl-1-oxobutan-2-yl)carbamate] | 0.0092 µM
COC(=O)N[C@H](C(=O)N1CCC2(CCC2)CC1C(=O)N[C@@H](CCC(C)(F)F)C(=O)C(=O)NC1CC1)C(C)(C)C (single isomer, unassigned) [Example 41, Methyl ((S)-1-((R or S)-(6-(((S)-1-(cyclopropylamino)-6,6-difluoro-1,2-dioxoheptan-3-yl)carbamoyl)-7-azaspiro[3.5]nonan-7-yl)-3,3-dimethyl-1-oxobutan-2-yl)carbamate] | 0.013 µM
COC(=O)N[C@H](C(=O)N1CC2CCC2C1C(=O)N[C@@H](CCC(C)(F)F)C(=O)C(=O)NC1CC1)C(C)(C)C (single isomer, unassigned) [Example 43, Methyl ((S)-1-((1(R or S), 2(R or S),5(R or S))-(2-(((S)-1-(cyclopropylamino)-6,6-difluoro-1,2-dioxoheptan-3-yl)carbamoyl)-3-azabicyclo[3.2.0]heptan-3-yl)-3,3-dimethyl-1-oxobutan-2-yl)carbamate] | 0.022 µM
CNC(=O)C(=O)[C@H](CCC(C)(F)F)NC(=O)C1CC2(CCC2)CN1C(=O)[C@@H](NC(=O)OC)C(C)(C)C (single isomer, unassigned) [Example 44, Methyl ((S)-1-((R or S)-7-(((S)-6,6-difluoro-1-(methylamino)-1,2-dioxoheptan-3-yl)carbamoyl)-6-azaspiro[3.4]octan-6-yl)-3,3-dimethyl-1-oxobutan-2-yl)carbamate] | 0.027 µM
COC(=O)N[C@H](C(=O)N1CCC(F)(F)CC1C(=O)N[C@@H](CCC(C)(F)F)C(=O)C(=O)NC1CC1)C(C)(C)C (single isomer, unassigned) [Example 45, Methyl ((S)-1-(R or S)-(2-(((S)-1-(cyclopropylamino)-6,6-difluoro-1,2-dioxoheptan-3-yl)carbamoyl)-4,4-difluoropiperidin-1-yl)-3,3-dimethyl-1-oxobutan-2-yl)carbamate] | 0.034 µM
COC(=O)N[C@H](C(=O)N1CC2(CCC2)CC1C(=O)N[C@@H](CCC(C)(F)F)C(=O)C(=O)NC1CC1)C(C)(C)C (single isomer, unassigned) [Example 47, Methyl ((S)-1-(R or S)-7-(((S)-1-(cyclopropylamino)-6,6-difluoro-1,2-dioxoheptan-3-yl)carbamoyl)-6-azaspiro[3.4]octan-6-yl)-3,3-dimethyl-1-oxobutan-2-yl)carbamate] | 0.038 µM

From patent US20250223259A1, “PROTEASE INHIBITORS FOR TREATING OR PREVENTING CORONAVIRUS INFECTION” (Merck Sharp & Dohme LLC, priority 2022, published 2025)
